Measured values: the NIST ThermoML archive (doi:10.1016/j.jct.2018.04.003)

Test: mn = molality of the nth substance listed, in mol/kg
Settings: 101.3 kPa, Liquid; for speed of sound: Frequency=2 MHz, Linear variable-path acoustic interferometer; for mass density: Pycnometric method

NNC(=O)c1ccncc1 [isonicotinic acid hydrazide] + O
Settings	mass density [kg/m3]	speed of sound [m/s]
288.15 K, m1 = 0.0099	999.49	1466.6
288.15 K, m1 = 0.02	999.88	1467.3
288.15 K, m1 = 0.03	1000.26	1468
288.15 K, m1 = 0.0401	1000.64	1468.7
288.15 K, m1 = 0.0495	1001	1469.4
288.15 K, m1 = 0.055	1001.19	1469.8
288.15 K, m1 = 0.06	1001.38	1470.1
288.15 K, m1 = 0.065	1001.55	1470.5
288.15 K, m1 = 0.0708	1001.77	1470.9
288.15 K, m1 = 0.075	1001.92	1471.2
288.15 K, m1 = 0.0809	1002.12	1471.6
288.15 K, m1 = 0.0846	1002.25	1471.9
288.15 K, m1 = 0.0901	1002.45	1472.3
288.15 K, m1 = 0.0949	1002.62	1472.6
288.15 K, m1 = 0.1002	1002.81	1473
298.15 K, m1 = 0.0099	997.39	1497.4
298.15 K, m1 = 0.0197	997.69	1498.1
298.15 K, m1 = 0.0299	998.02	1498.8
298.15 K, m1 = 0.04	998.35	1499.6
298.15 K, m1 = 0.0499	998.67	1500.3
298.15 K, m1 = 0.055	998.83	1500.6
298.15 K, m1 = 0.0599	998.99	1500.9
298.15 K, m1 = 0.0649	999.15	1501.3
298.15 K, m1 = 0.0699	999.31	1501.6
298.15 K, m1 = 0.075	999.47	1502
298.15 K, m1 = 0.0797	999.61	1502.3
298.15 K, m1 = 0.085	999.78	1502.7
298.15 K, m1 = 0.0897	999.92	1503
298.15 K, m1 = 0.0949	1000.09	1503.4
298.15 K, m1 = 0.1006	1000.26	1503.8
308.15 K, m1 = 0.0099	994.3	1520.5
308.15 K, m1 = 0.0199	994.58	1521.3
308.15 K, m1 = 0.0301	994.85	1522
308.15 K, m1 = 0.04	995.12	1522.7
308.15 K, m1 = 0.0501	995.39	1523.5
308.15 K, m1 = 0.055	995.52	1523.9
308.15 K, m1 = 0.06	995.64	1524.2
308.15 K, m1 = 0.0649	995.76	1524.6
308.15 K, m1 = 0.0699	995.9	1525
308.15 K, m1 = 0.0751	996.03	1525.3
308.15 K, m1 = 0.0799	996.15	1525.7
308.15 K, m1 = 0.0851	996.28	1526.1
308.15 K, m1 = 0.09	996.41	1526.4
308.15 K, m1 = 0.095	996.53	1526.8
308.15 K, m1 = 0.1002	996.67	1527.2

[Cl-].[K+] [potassium chloride] + O
Settings	mass density, 288.15 K [kg/m3]	mass density, 298.15 K [kg/m3]	mass density, 308.15 K [kg/m3]	speed of sound, 288.15 K [m/s]	speed of sound, 298.15 K [m/s]	speed of sound, 308.15 K [m/s]
m1 = 0.06	1002.26	1000.42	997.25	1467.4	1498.3	1522.2
m1 = 0.1	1003.48	1001.79	998.71	1469.6	1502.5	1525.1
